Assay results reported in patent publication US20220290114A1 (priority 2019, published 2022).
Where two headings read alike, the source gives them in different places.

What was measured:
[1] = tested on: C. perfringens reference strains (NCTC 2837, 8235, 8237, 8238, 8239, 8359, 8678, 10578); type: cell-based, Clostridium perfringens; conditions: for effect on C. perfringens growth in spot assay: 10 μg/ml chloramphenicol, 20 μg/ml spectinomycin, 1 mg/mL lysozyme, 1 mg/mL disodium EDTA; for effect in spot assay: NCTC 8237, FIG. 4, freshly-plated cells and cell lawns
[2] = tested on: Clostridium cellobioparum (DSMZ 1351); experiment: Spot assay of clarified lysates on non-Cp species; type: cell-based; parameters: key: The presence of antimicrobial activity is denoted by a ‘+’; the lack of antimicrobial activity is denoted by a ‘−’
[3] = tested on: Clostridium leptum (DSMZ 753); experiment: Spot assay of clarified lysates on non-Cp species; type: cell-based; parameters: key: The presence of antimicrobial activity is denoted by a ‘+’; the lack of antimicrobial activity is denoted by a ‘−’
[4] = tested on: Clostridium colinum (DSMZ 6011); experiment: Spot assay of clarified lysates on non-Cp species; type: cell-based; parameters: key: The presence of antimicrobial activity is denoted by a ‘+’; the lack of antimicrobial activity is denoted by a ‘−’
[5] = tested on: Bifidobacterium adolescentis (DSMZ 20083); experiment: Spot assay of clarified lysates on non-Cp species; type: cell-based; parameters: key: The presence of antimicrobial activity is denoted by a ‘+’; the lack of antimicrobial activity is denoted by a ‘−’
[6] = tested on: C. perfringens strain Cp6; type: cell-based, Clostridium perfringens
[7] = tested on: C. perfringens NCTC reference strains and APHA field isolates; type: cell-based, Clostridium perfringens; parameters: key to bacteriolytic activity, cell lawn: (−) indicates no visible lysis; +/−, +, ++, +++ correspond to increasingly clear lysis halos around the paper disks; +/−, +, ++, +++ correspond to increasingly clear lysis halos around the paper disks; +/−, +, ++, +++ correspond to increasingly clear lysis halos around the paper disks; +/−, +, ++, +++ correspond to increasingly clear lysis halos around the paper disks
[8] = tested on: C. perfringens reference strains (NCTC 2837, 8237, 8238, 8239); type: cell-based, Clostridium perfringens
C. perfringens Cp6 PGN = type: biochemical, Clostridium perfringens; conditions: 54D extract, 3× replicates, fresh PGN stock
[9] = NCTC 2837, FP (freshly-plated cells)

For `CC1(C)S[C@@H]2[C@H](NC(=O)[C@H](N)c3ccccc3)C(=O)N2[C@H]1C(=O)O` [Ampicillin], the “antimicrobial activity in spot assay (clearance zone)” value (from here on “antimicrobial activity in spot assay”) ([1]; NCTC 2837, CL (cell lawn)) was “−”, the “antimicrobial activity in spot assay” value [1, 9] was “+” and the “antimicrobial activity in spot assay” value ([1]; NCTC 8235, CL) was “−”. For the same molecule, the “antimicrobial activity in spot assay” value ([1]; NCTC 8235, FP) was “+”, the “antimicrobial activity in spot assay” value ([1]; NCTC 8237, CL) was “−” and the “antimicrobial activity in spot assay” value ([1]; NCTC 8237, FP) was “+”. For the same molecule, the “antimicrobial activity in spot assay” value ([1]; NCTC 8238, CL) was “−”, the “antimicrobial activity in spot assay” value ([1]; NCTC 8238, FP) was “+” and the “antimicrobial activity in spot assay” value ([1]; NCTC 8239, CL) was “−”. The “antimicrobial activity in spot assay” value ([1]; NCTC 8239, FP) was “+”, the “antimicrobial activity in spot assay” value ([1]; NCTC 8359, CL) was “−” and the “antimicrobial activity in spot assay” value ([1]; NCTC 8359, FP) was “+”. For the same molecule, the “antimicrobial activity in spot assay” value ([1]; NCTC 8678, CL) was “−”, the “antimicrobial activity in spot assay” value ([1]; NCTC 8678, FP) was “+” and the “antimicrobial activity in spot assay” value ([1]; NCTC 10578, CL) was “−”. For the same molecule, the “antimicrobial activity in spot assay” value ([1]; NCTC 10578, FP) was “+”, the “antimicrobial activity in spot assay” value ([2]; DSMZ 1351, CL) was “−” and the “antimicrobial activity in spot assay” value ([2]; DSMZ 1351, FP) was “+”. The “antimicrobial activity in spot assay” value ([3]; DSMZ 753, CL) was “−”, the “antimicrobial activity in spot assay” value ([4]; DSMZ 6011, CL) was “−” and the “antimicrobial activity in spot assay” value ([4]; DSMZ 6011, FP) was “−”. For the same molecule, the “antimicrobial activity in spot assay” value ([5]; DSMZ 20083, CL) was “−” and the “antimicrobial activity in spot assay” value ([5]; DSMZ 20083, FP) was “+”.

With `O=C(N[C@H](CO)[C@H](O)c1ccc([N+](=O)[O-])cc1)C(Cl)Cl` [Chloramphenicol] the “effect on C. perfringens growth in spot assay” value (“effect on C. perfringens growth” for short) [1] was “no effect” and the “effect in spot assay” value [1] was “no effect”.

With `O=C([O-])CN(CCN(CC(=O)[O-])CC(=O)O)CC(=O)O.[Na+].[Na+]` [disodium EDTA] the “effect on C. perfringens growth” value [1] was “no effect” and the “effect on freshly-plated cells in spot assay” value ([1]; 10 mM EDTA, screening set 2) was “inhibitory effect”.

In the case of `NC[C@H]1O[C@H](O[C@H]2[C@H](O)[C@@H](O[C@H]3O[C@H](CO)[C@@H](O)[C@H](N)[C@H]3O)[C@H](N)C[C@@H]2N)[C@H](O)[C@@H](O)[C@@H]1O` [kanamycin], the “effect in spot assay” value [1] is reported as “no effect”.

`CN[C@@H]1[C@H](O)[C@H](NC)[C@H]2O[C@@]3(O)C(=O)C[C@@H](C)O[C@H]3O[C@@H]2[C@H]1O` [spectinomycin] was tested, and the “effect on C. perfringens growth” value [1] was “no effect” and the “effect in spot assay” value [1] was “no effect”.

With “Lysozyme: Chicken hen egg white lysozyme, reference enzybiotic” the MBC ([6]; Cp6, molar basis) was >174 µM, the MIC ([6]; Cp6, molar basis) was >174 µM and the MBC ([6]; Cp6, ~2.1E4 cells/mL) was >2500 µg/mL. For the same molecule, the “lysozyme loading not able to inhibit overnight growth” value ([6]; Cp6, ~2.1E4 cells/mL) was > 2.5 mg/mL, the MIC ([6]; Cp6, ~2.1E4 cells/mL, overnight at 41° C.) was >2500 µg/mL and the “bacteriolytic activity, cell lawn” value ([7]; APHA B00907, 50 μg/ml) was “−”. For the same molecule, the “growth inhibition, freshly plated cells” value ([7]; APHA B00907, 50 μg/ml) was “−”, the “bacteriolytic activity, cell lawn” value ([7]; APHA B00917, 50 μg/ml) was “−” and the “growth inhibition, freshly plated cells” value ([7]; APHA B00917, 50 μg/ml) was “−”. The “bacteriolytic activity, cell lawn” value ([7]; APHA B00954, 50 μg/ml) was “−”, the “growth inhibition, freshly plated cells” value ([7]; APHA B00954, 50 μg/ml) was “−” and the “bacteriolytic activity, cell lawn” value ([7]; APHA B00964, 50 μg/ml) was “−”. For the same molecule, the “growth inhibition, freshly plated cells” value ([7]; APHA B00964, 50 μg/ml) was “−”, the “bacteriolytic activity, cell lawn” value ([7]; APHA B00976, 50 μg/ml) was “−” and the “growth inhibition, freshly plated cells” value ([7]; APHA B00976, 50 μg/ml) was “−”. The “bacteriolytic activity, cell lawn” value ([7]; APHA G00033, 50 μg/ml) was “−”, the “growth inhibition, freshly plated cells” value ([7]; APHA G00033, 50 μg/ml) was “−” and the “bacteriolytic activity, cell lawn” value ([7]; APHA W100102, 50 μg/ml) was “−”. The “growth inhibition, freshly plated cells” value ([7]; APHA W100102, 50 μg/ml) was “−”, the “bacteriolytic activity, cell lawn” value ([7]; NCTC 2837, 50 μg/ml) was “−” and the “growth inhibition, freshly plated cells” value ([7]; NCTC 2837, 50 μg/ml) was “−”. The “bacteriolytic activity, cell lawn” value ([7]; NCTC 8237, 50 μg/ml) was “−”, the “growth inhibition, freshly plated cells” value ([7]; NCTC 8237, 50 μg/ml) was “−” and the “bacteriolytic activity, cell lawn” value ([7]; NCTC 8238, 50 μg/ml) was “−”. For the same molecule, the “growth inhibition, freshly plated cells” value ([7]; NCTC 8238, 50 μg/ml) was “−”, the “bacteriolytic activity, cell lawn” value ([7]; NCTC 8239, 50 μg/ml) was “−” and the “growth inhibition, freshly plated cells” value ([7]; NCTC 8239, 50 μg/ml) was “−”. The “effect on C. perfringens growth” value [1] was “no effect”, the “antimicrobial activity in spot assay” value ([1]; NCTC 2837, CL (cell lawn)) was “−” and the “antimicrobial activity in spot assay” value [1, 9] was “−”. For the same molecule, the “antimicrobial activity in spot assay” value ([1]; NCTC 8235, CL) was “−”, the “antimicrobial activity in spot assay” value ([1]; NCTC 8235, FP) was “−” and the “antimicrobial activity in spot assay” value ([1]; NCTC 8237, CL) was “−”. The “antimicrobial activity in spot assay” value ([1]; NCTC 8237, FP) was “−”, the “antimicrobial activity in spot assay” value ([1]; NCTC 8238, CL) was “−” and the “antimicrobial activity in spot assay” value ([1]; NCTC 8238, FP) was “−”. The “antimicrobial activity in spot assay” value ([1]; NCTC 8239, CL) was “−”, the “antimicrobial activity in spot assay” value ([1]; NCTC 8239, FP) was “−” and the “antimicrobial activity in spot assay” value ([1]; NCTC 8359, CL) was “−”. For the same molecule, the “antimicrobial activity in spot assay” value ([1]; NCTC 8359, FP) was “+”, the “antimicrobial activity in spot assay” value ([1]; NCTC 8678, CL) was “−” and the “antimicrobial activity in spot assay” value ([1]; NCTC 8678, FP) was “−”. For the same molecule, the “antimicrobial activity in spot assay” value ([1]; NCTC 10578, CL) was “−”, the “antimicrobial activity in spot assay” value ([1]; NCTC 10578, FP) was “−” and the “antimicrobial activity in spot assay” value [2] was “−”. For the same molecule, the “antimicrobial activity in spot assay” value [3] was “−”, the “antimicrobial activity in spot assay” value [4] was “−” and the “antimicrobial activity in spot assay” value ([5]; DSMZ 20083, CL) was “−”. The “antimicrobial activity in spot assay” value ([5]; DSMZ 20083, FP) was “−” and the “bacteriolytic activity in turbidity reduction assay” value [8] was “minimal bacteriolytic activities”.

B1: AMI3CPF4969: endolysin sequence, SEQ ID NO: 11 (protein)
chain: QSRSDSNFKGIDISNWQKGINLNQLKERGYDVCYIKITEGKGYVDPCFEENYNKAIAAGMKVGVYHYWRGTSSAIEQANNIVRTLGNKHIDCKIAIDVEQTDGLSYGELNNSVLQLAEELERLIGAEVCIYCNTNYARNVLDSRLGKYSLWVAHYGVNKPGDNPIWDKWAGFQYSENGTSNVNGSLDLDEFTEEIFINKESSKVTENKLFSTNARALVALDPRDNPSDNYNDLGEIYEGERIQVLAEVCDKEDYLPVKYWKDSEGRESGKVWIRSKQDYMMIDTYHRVFNVITQLDARYEPSSDSATMGYVKNGERLYVHRTEGNYSLCTYFAGNGYKTAWFTAKYLER
modifications: AMI3CPF4969
B1 was tested, and the “fold enhancement of PGN degradation activity in 54D algal extract vs PBS, pH 7.0” value (C. perfringens Cp6 PGN) was ≤ 44 fold.
